According to patent publication US20240139192A1, “METHODS AND COMPOSITIONS COMPRISING A BRAF INHIBITOR AND A MEK INHIBITOR” (Hoffmann-La Roche Inc., priority 2021, published 2024):

How the values were obtained:
[1] = system: P-ERK in A375 cells (V600E mutated BRAF); assay: HTRF assay for P-ERK determination in A375 cells; format: cell-based; settings: Homo sapiens, A-375; A375 cell line, 1 hour drug incubation; read-out: pERK IC50 A375
Text: DMEM no-phenol red medium supplemented with L-glutamine was purchased from (Thermo Fisher Scientific). Fetal bovine serum (FBS) was purchased from VWR. […] 384-well microplates were purchased from Greiner Bio-One, 384-well, (With Lid, HiBase, Low volume cat 784-080).
ERK 1,2 phosphorylation (terminal member of the phosphorylation cascade of the MAPK pathway) is hereafter reported as main readout for the activation status of the MAPK pathway.
In order to allow proper data normalization control wells without drug treatment reported are always included in each plate (according to manufacturer's instruction):
The plate is then centrifuged at 300 rcf for 30 second, sealed to prevent evaporation and incubated overnight in the dark at room temperature.
The plate is then analyzed and fluorescence emission value collected through a Pherastast FSX (BMG Labtech) apparatus at […].
Data are normalized considering the average of the ratio (blank subtracted) derived by DMSO only treated cells as 100% and by considering the average of the ratio (blank subtracted) derived by 10 μM dabrafenib treated cells as 0%. Mean of the normalized points are fitted with sigmoidal curve and IC50 determined. […] Kd is the dissociation constant in the biochemical experiments.

[2] = system: P-ERK in A375 NRAS Q61K cells; assay: Western Blot analysis of phosphorylated ERK in A375 NRAS Q61K cells; format: cell-based; settings: 1 h, alone or with 10 nM Cobimetinib, compared with Encorafenib or Encorafenib/Cobimetinib (FIG. 1)
Method: Cell lines were obtained from ATCC, maintained in humidified incubators at 5% CO2 in standard conditions and passaged twice a week.
The A375 cell line presenting BRAF V600E and the RAF dimer inducing mutation NRAS Q61K was utilized to model a mechanism of resistance to BRAFi and BRAFi/MEKi combinations.

BRAF = BRAF (Homo sapiens, UniProt P15056); assay: biochemical
Chain of BRAF (P15056 whole entry): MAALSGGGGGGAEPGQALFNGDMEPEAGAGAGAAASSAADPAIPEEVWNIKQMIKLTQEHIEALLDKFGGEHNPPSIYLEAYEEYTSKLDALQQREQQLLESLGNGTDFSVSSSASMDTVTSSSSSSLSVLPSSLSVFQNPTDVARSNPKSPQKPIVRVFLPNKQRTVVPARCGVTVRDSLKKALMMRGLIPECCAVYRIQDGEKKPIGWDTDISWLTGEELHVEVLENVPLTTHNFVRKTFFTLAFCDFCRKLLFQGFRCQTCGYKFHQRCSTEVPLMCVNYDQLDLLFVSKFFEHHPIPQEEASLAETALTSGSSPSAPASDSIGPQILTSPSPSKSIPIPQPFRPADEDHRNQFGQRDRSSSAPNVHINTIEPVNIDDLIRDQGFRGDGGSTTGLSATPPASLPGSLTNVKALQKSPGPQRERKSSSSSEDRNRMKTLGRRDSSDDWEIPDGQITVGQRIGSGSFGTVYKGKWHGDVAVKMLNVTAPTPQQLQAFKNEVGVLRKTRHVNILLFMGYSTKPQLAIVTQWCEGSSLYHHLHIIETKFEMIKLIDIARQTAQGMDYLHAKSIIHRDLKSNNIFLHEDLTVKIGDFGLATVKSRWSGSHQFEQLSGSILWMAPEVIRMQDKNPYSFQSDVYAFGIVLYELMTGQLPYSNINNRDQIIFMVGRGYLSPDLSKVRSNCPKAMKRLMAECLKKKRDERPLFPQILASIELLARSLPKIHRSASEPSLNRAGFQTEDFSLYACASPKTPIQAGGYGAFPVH

BRAF V600E = BRAF V600E (Homo sapiens, UniProt P15056, V600E); assay: biochemical
Chain of BRAF V600E (P15056 whole entry V600E): as the sequence (P15056 whole entry) above, with V600E counted along it

CRAF = CRAF (Homo sapiens, UniProt P04049); assay: biochemical
Chain of CRAF (P04049 whole entry): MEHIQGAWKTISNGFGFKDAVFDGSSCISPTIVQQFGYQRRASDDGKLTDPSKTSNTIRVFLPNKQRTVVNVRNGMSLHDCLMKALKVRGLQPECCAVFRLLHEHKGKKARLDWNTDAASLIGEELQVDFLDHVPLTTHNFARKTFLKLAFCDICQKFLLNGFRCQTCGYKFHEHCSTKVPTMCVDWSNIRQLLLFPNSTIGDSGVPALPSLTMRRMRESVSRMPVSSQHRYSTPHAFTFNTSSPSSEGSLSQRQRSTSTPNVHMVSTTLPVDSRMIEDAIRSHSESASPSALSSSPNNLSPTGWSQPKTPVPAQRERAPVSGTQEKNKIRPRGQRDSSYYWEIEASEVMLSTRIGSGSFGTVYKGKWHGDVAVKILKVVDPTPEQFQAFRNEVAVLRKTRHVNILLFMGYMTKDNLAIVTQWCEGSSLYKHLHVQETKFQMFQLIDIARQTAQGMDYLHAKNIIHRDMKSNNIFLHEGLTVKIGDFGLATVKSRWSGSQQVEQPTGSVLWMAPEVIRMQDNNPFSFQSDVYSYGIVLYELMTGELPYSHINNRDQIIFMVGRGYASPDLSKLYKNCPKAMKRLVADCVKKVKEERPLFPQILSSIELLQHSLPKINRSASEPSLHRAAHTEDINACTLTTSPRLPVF

[3] = molecular target: C-terminal Src kinase (CSK) (Homo sapiens, UniProt P41240); assay: biochemical
Chain of C-terminal Src kinase (CSK) (P41240 whole entry): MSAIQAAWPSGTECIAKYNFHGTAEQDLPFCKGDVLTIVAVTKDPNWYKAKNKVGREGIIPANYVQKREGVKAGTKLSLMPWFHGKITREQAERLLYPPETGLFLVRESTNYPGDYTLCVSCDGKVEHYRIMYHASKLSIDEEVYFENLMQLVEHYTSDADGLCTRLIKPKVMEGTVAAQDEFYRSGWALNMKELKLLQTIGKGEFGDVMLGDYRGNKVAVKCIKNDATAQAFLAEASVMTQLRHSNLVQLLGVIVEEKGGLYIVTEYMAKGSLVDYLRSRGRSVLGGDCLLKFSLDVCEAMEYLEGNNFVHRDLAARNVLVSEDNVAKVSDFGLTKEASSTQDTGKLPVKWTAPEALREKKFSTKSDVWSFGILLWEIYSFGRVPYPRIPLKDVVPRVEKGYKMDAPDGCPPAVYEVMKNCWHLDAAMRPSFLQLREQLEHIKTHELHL

[4] = molecular target: lymphocyte-specific tyrosine protein kinase (LCK) (Homo sapiens, UniProt P06239); assay: biochemical
Chain of lymphocyte-specific tyrosine protein kinase (LCK) (P06239 whole entry): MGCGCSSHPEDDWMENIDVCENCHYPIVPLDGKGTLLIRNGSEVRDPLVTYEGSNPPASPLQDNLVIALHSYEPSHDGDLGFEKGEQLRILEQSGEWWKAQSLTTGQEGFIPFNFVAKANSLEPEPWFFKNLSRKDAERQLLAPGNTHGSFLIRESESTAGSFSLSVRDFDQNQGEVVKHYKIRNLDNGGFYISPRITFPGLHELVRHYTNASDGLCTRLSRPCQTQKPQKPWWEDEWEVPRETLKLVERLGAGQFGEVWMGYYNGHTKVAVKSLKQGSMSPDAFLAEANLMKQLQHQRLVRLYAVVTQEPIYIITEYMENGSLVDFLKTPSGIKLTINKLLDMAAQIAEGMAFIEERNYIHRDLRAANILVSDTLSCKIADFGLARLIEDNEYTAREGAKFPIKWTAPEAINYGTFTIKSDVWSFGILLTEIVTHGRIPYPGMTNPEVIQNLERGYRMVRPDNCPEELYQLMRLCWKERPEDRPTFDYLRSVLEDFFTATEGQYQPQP

## Cn1cnc2ccc(Oc3c(F)ccc(NS(=O)(=O)N4CC[C@@H](F)C4)c3C#N)cc2c1=O [(Ia), (3R)-N-[2-cyano-4-fluoro-3-(3-methyl-4-oxo-quinazolin-6-yl)oxy-phenyl]-3-fluoro-pyrrolidine-1-sulfonamide]
[1]
  IC50: 6.9 nM
[2]
  P-ERK inhibition (Western Blot): superior P-ERK inhibition compared to Encorafenib
BRAF
  Kd: 0.6 nM
BRAF V600E
  Kd: 1.2 nM
CRAF
  Kd: 1.7 nM
[3]
  Kd: 23300 nM
[4]
  Kd: 40000 nM

## Cn1cnc2ccc(Oc3c(F)ccc(NS(=O)(=O)N4CC[C@H](F)C4)c3C#N)cc2c1=O [(Ib), (3S)-N-[2-cyano-4-fluoro-3-(3-methyl-4-oxo-quinazolin-6-yl)oxy-phenyl]-3-fluoro-pyrrolidine-1-sulfonamide]
[1]
  IC50: 10.6 nM
BRAF
  Kd: 1.3 nM
BRAF V600E
  Kd: 0.9 nM
CRAF
  Kd: 1.2 nM
[3]
  Kd: 9160 nM
[4]
  Kd: 20100 nM
